Measured values taken from patent US20110111021A1, “PHARMACEUTICAL PREPARATION” (HANALL BIOPHARMA CO., LTD., priority 2008, published 2011).
One block for each compound: values may come before it.

How the values were obtained:
[1] = cited from earlier work
[2] = concurrent administration of aliskiren and atorvastatin; cited from earlier work
[3] = tested on: hepatic enzyme cytochrome P450; conditions: cited from earlier work
[4] = Pharmacokinetic evaluation of aliskiren and atorvastatin in rats (animal test); type: in vivo; conditions: SD rats, oral, once a day for 8 days
Protocol: As an experiment to confirm the effects of the invention, an animal test was carried out as follows, in order to confirm the effects of conventional combined administration and inventive chronotherapeutic administration of pharmacologically active ingredients, aliskiren as a renin inhibitor and atorvastatin as an HMG-CoA reductase inhibitor.
1) Title: Pharmacokinetic evaluation of aliskiren and atorvastatin in a hypertensive animal model.
2) Object: It is intended to verify through the chronotherapeutic administration-based pharmacokinetic changes the fact that the problem of pharmacokinetic interaction between different drugs upon simultaneous administration of drug groups metabolized by the same hepatic enzyme can be solved by controlled release of the drugs.
1. Test group: Animals were grouped into two groups (n=6), a group receiving simultaneous administration of aliskiren/atorvastatin, and a group receiving chronotherapeutic administration of aliskiren/atorvastatin.
2. Administration route: Forced intragastric administration via an oral sonde.
3. […]
5. Administration volume: 5 mL/kg based on the body weight of animals measured on the day of administration. […]

cytochrome P450 3A4 = cytochrome P450 3A4 (Homo sapiens, UniProt P08684); conditions: in vitro experiments; cited from earlier work
Chain of cytochrome P450 3A4 (P08684 whole entry, species assumed): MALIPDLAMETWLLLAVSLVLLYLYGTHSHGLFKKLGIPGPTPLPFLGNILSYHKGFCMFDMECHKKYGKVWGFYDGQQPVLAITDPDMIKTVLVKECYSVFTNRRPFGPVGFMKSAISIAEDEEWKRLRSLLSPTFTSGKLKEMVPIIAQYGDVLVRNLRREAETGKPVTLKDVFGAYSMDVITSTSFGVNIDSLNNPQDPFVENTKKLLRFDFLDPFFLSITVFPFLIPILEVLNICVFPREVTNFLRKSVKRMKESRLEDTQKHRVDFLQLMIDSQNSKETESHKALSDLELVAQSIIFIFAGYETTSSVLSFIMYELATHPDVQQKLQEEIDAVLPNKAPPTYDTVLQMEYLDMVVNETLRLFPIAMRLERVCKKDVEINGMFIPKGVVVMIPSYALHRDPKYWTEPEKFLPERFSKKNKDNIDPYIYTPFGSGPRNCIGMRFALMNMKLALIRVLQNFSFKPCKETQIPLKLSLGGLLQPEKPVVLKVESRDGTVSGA

SMILES: CC(C)C[C@H](O)[C@H](O)[C@H](CC1CCCCC1)NC(=O)[C@H](Cc1cscn1)NC(=O)[C@H](Cc1ccccc1)CS(=O)(=O)N1CCN(C)CC1 [zankiren]
bioavailability (in words) ([1]; in vivo): low | half-life (in words) ([1]; in vivo): short

SMILES: COc1ccc(C[C@H](NC(=O)CC(C)(C)N)C(=O)N[C@@H](Cc2cnc[nH]2)C(=O)N[C@@H](CC2CCCCC2)[C@@H](O)[C@@H](O)CC(C)C)cc1 [enalkiren]
bioavailability (in words) ([1]; in vivo): low | half-life (in words) ([1]; in vivo): short

SMILES: CC(C)(C)S(=O)(=O)C[C@@H](Cc1ccccc1)C(=O)N[C@@H](Cc1cnc[nH]1)C(=O)N[C@@H](CC1CCCCC1)[C@@H](O)[C@@H](O)C1CC1 [remikiren]
bioavailability (in words) ([1]; in vivo): low | half-life (in words) ([1]; in vivo): short

blood level of aliskiren compared to the single administration group ([4]; aliskiren 300 mg/kg and atorvastatin 80 mg/kg simultaneously): significant increase
SMILES: COCCCOc1cc(C[C@@H](C[C@H](N)[C@@H](O)C[C@H](C(=O)NCC(C)(C)C(N)=O)C(C)C)C(C)C)ccc1OC [aliskiren, 2(S),4(S),5(S),7(S)-N-(3-amino-2,2-dimethyl-3-oxopropyl)-2,7-di(1-methylethyl)-4-hydroxy-5-amino-8-[4-methoxy-3-(3-methoxy-propoxy)phenyl]-octanamide]
increase in blood aliskiren level [2]: 50% | inhibition or induction of hepatic enzyme cytochrome P450 [3]: does not inhibit or induce | blood aliskiren level compared to the single administration group ([4]; aliskiren 300 mg/kg given 4 hours after atorvastatin 80 mg/kg (chronotherapeutic)): equivalent to that of the single administration group | metabolism by cytochrome P450 3A4 (cytochrome P450 3A4): metabolized by cytochrome P450 3A4 | bioavailability ([1]; in vivo): ≤ 2% | half-life ([1]; in vivo): 24 h | decrease in bioavailability ([1]; when high-fat diet is ingested): 71% | decrease in peak blood level ([1]; when high-fat diet is ingested): 85%
